Tests used:
[1] = system: Bone marrow cell; assay: Inhibition of IL3 dependent proliferation in […] mouse bone marrow cells using [3H]thymidine by liquid scintillation counting; format: functional, cell-based
[2] = target: T1, Tyrosine-protein kinase SYK (Homo sapiens, UniProt P43405); assay: Inhibition of Syk (unknown origin) using 4 uM peptide assessed as product formation after 60 mins incubation by microfluidic mobility shift assay
[3] = target: Tyrosine-protein kinase Lyn (Homo sapiens, UniProt P07948); assay: Inhibition of Lyn (unknown origin)
[4] = target: T2, Tyrosine-protein kinase ZAP-70 (Homo sapiens, UniProt P43403); assay: Inhibition of ZAP70 (unknown origin)
T2 sequence (P43403 whole entry): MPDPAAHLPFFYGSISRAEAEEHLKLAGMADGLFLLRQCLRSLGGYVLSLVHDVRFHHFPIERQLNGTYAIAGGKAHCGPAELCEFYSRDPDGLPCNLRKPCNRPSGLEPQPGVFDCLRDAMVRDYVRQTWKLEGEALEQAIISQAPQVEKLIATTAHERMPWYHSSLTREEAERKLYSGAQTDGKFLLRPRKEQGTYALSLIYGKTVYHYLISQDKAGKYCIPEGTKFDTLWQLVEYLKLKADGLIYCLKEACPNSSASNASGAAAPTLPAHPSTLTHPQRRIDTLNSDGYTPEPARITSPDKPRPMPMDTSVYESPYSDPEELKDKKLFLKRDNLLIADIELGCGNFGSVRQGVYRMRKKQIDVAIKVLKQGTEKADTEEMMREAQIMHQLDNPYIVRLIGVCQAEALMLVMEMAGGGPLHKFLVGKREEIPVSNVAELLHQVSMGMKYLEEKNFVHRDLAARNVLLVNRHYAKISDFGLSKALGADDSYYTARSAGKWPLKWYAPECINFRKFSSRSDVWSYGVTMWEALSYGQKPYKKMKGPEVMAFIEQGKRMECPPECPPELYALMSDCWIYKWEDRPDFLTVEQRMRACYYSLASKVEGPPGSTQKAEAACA

[5] = target: Tyrosine-protein kinase JAK2 (Homo sapiens, UniProt O60674); assay: Inhibition of JAK2 (unknown origin)
[6] = target: T1, Tyrosine-protein kinase SYK; assay: Inhibition of Syk in anti IgM-stimulated human Ramos cells assessed as BLNK phosphorylation by cellular assay
[7] = target: T1, Tyrosine-protein kinase SYK; assay: Inhibition of Syk in human whole blood assessed as inhibition of P-SLP76 in CD14+ monocytes by flow cytometry
[8] = target: Voltage-gated inwardly rectifying potassium channel KCNH2 (Homo sapiens, UniProt Q12809); assay: Inhibition of human ERG by Q-patch assay
[9] = Half life in rat liver microsomes; format: ADME; details: liver microsomes
[10] = Clearance in Sprague-Dawley rat at 1 mg/kg, iv and 3 mg/kg, po; format: ADME, organism-based; details: in vivo
[11] = Volume of distribution at steady state in Sprague-Dawley rat at 1 mg/kg, iv and 3 mg/kg, po; format: ADME, organism-based; details: in vivo, read-out: Vdss
[12] = Terminal half life Sprague-Dawley rat at 1 mg/kg, iv and 3 mg/kg, po; format: ADME, organism-based; details: in vivo, read-out: beta t1/2 (converted)
[13] = system: Rattus norvegicus; assay: Dose normalized AUC in Sprague-Dawley rat at 1 mg/kg, iv; format: ADME, organism-based; design: dose 1 mg/kg, route intravenous; details: in vivo
[14] = system: Rattus norvegicus; assay: Dose normalized AUC in Sprague-Dawley rat at 3 mg/kg, po; format: ADME, organism-based; design: dose 3 mg/kg, route oral; details: in vivo
[15] = system: Rattus norvegicus; assay: Cmax/dose in Sprague-Dawley rat at 1 mg/kg, iv and 3 mg/kg, po; format: ADME, organism-based; details: in vivo
[16] = Plasma bioavailability in Sprague-Dawley rat at 1 mg/kg, iv and 3 mg/kg, po; format: ADME, organism-based
[17] = Half life in rat liver S9 fraction assessed as conversion into 5-(1H-indol-7-ylamino)-7-((1R,2S)-2-aminocyclohexylamino)pyrido[4,3-d]pyrimidine-2,4(1H,3H)-dione in presence of NADPH; format: ADME, subcellular
[18] = system: Liver; assay: Half life in rat liver S9 fraction assessed as conversion into 5-(1H-indol-7-ylamino)-7-((1R,2S)-2-aminocyclohexylamino)pyrido[4,3-d]pyrimidine-2,4(1H,3H)-dione; format: ADME, subcellular

Chain of Tyrosine-protein kinase JAK2 (O60674 whole entry): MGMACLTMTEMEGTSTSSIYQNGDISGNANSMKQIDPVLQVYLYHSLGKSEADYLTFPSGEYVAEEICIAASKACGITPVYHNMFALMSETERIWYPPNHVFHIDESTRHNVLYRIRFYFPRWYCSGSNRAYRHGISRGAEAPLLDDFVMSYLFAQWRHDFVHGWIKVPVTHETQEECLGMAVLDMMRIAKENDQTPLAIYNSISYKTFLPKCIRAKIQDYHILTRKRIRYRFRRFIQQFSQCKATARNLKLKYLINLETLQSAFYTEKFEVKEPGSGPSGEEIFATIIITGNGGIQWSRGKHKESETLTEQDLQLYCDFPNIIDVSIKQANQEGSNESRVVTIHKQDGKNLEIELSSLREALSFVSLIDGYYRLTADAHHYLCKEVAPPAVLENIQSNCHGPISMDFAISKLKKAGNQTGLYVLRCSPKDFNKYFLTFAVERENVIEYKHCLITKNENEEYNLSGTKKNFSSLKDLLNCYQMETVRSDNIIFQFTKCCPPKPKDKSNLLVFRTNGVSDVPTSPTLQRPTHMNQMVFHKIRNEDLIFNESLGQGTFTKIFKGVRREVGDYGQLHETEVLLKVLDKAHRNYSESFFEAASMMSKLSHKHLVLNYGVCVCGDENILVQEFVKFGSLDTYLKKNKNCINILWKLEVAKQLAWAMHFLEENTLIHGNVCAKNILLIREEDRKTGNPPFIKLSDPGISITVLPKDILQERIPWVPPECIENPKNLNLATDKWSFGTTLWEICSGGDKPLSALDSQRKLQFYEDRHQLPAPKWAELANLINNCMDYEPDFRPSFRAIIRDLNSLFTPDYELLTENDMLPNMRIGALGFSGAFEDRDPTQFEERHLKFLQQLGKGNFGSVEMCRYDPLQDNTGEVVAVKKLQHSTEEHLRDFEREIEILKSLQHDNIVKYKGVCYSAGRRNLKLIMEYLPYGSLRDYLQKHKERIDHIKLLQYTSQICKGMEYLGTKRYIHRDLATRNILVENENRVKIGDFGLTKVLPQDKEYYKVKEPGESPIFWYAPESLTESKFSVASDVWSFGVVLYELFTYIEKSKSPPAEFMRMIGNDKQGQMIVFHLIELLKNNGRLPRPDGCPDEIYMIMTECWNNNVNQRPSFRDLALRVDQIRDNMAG
Chain of Tyrosine-protein kinase Lyn (P07948 whole entry): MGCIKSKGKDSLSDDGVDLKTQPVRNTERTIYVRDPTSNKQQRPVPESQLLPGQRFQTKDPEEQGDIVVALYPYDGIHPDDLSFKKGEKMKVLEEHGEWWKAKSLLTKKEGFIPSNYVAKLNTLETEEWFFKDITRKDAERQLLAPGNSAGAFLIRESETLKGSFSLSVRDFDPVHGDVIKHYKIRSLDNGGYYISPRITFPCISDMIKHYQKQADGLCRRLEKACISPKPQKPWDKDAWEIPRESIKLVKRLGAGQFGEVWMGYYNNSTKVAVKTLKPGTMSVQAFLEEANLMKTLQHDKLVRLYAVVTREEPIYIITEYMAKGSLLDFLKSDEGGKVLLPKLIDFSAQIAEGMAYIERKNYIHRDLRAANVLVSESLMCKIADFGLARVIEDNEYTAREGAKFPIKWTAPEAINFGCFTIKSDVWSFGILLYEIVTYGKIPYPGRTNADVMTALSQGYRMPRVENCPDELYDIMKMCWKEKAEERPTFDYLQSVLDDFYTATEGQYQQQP
Chain of Voltage-gated inwardly rectifying potassium channel KCNH2 (Q12809 whole entry): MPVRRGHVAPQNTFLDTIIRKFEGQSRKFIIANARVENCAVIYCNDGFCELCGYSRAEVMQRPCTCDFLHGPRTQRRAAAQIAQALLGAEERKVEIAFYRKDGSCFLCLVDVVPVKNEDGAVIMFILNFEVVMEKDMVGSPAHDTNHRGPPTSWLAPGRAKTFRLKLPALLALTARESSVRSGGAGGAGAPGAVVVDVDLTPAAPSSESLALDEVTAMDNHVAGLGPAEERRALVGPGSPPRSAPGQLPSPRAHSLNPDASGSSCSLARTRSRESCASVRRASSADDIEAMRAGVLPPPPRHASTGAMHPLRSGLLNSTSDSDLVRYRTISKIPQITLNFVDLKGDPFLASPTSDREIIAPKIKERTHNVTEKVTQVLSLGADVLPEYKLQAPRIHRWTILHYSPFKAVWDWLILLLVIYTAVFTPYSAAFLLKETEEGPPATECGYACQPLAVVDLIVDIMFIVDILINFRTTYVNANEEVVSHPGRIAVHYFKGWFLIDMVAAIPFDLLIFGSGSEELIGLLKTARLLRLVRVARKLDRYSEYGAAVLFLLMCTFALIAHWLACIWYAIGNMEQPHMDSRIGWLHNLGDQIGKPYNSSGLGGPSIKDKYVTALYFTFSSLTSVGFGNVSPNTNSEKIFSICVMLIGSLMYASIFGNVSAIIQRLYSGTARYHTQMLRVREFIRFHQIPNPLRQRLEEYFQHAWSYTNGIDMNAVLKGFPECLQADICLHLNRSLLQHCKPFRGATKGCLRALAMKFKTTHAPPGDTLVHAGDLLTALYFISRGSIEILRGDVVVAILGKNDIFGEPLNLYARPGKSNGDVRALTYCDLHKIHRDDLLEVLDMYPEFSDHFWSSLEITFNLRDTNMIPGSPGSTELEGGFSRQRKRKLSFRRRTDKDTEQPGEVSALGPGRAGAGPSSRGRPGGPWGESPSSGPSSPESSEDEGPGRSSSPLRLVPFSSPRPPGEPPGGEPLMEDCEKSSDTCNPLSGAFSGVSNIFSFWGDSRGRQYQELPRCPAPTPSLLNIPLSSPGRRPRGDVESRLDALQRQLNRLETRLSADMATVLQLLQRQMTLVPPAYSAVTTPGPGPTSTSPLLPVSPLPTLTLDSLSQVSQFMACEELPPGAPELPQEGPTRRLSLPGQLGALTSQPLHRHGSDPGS

SMILES	IC50 [2] [µM]	IC50 [3] [µM]	IC50 [4] [µM]	IC50 [5] [µM]	IC50 [6] [µM]	IC50 [7] [µM]	half-life [9] [min]	clearance [10] [L/h/kg]	Vd [11] [L/kg]	half-life [12] [min]	AUC/dose [13] [nM·h]	AUC/dose [14] [nM·h]	Cmax/dose [15] [nM]	bioavailability [16] [%]	t1/2 [17] [min]	t1/2 [18] [min]	IC50 [1] [µM]	IC50 [8] [µM]
NC(=O)c1cnc(N[C@@H]2CCCC[C@@H]2N)nc1Nc1cccc(-n2nccn2)c1	–	–	–	–	–	–	–	–	–	–	–	–	–	–	–	–	5.85	–
Cn1cc2c(Nc3nc(N[C@@H]4CCOC[C@@H]4N)cc4cc[nH]c(=O)c34)cccc2n1	0.001	0.19	0.018	–	0.078	0.376	22	–	–	–	–	–	–	–	> 120	> 120	1.44	> 30
COc1cc(Nc2ncc(F)c(Nc3ccc4c(n3)NC(=O)C(C)(C)O4)n2)cc(OC)c1OC [R-406]	–	–	–	–	–	–	–	–	–	–	–	–	–	–	–	–	0.147	–
C[C@H](N)CNc1cc2nc[nH]c(=O)c2c(Nc2cccc3cc[nH]c23)n1	0.021	0.084	0.445	0.98	0.209	1.01	10	–	–	–	–	–	–	–	–	–	> 10	–
N[C@H]1CCCC[C@H]1Nc1cc2cc[nH]c(=O)c2c(Nc2cccc3c(Cl)c[nH]c23)n1	0.004	1.8	0.35	1.23	0.283	–	9	–	–	–	–	–	–	–	> 120	> 120	–	–

Further compounds by falling IC50 [2], results first:

IC50 [2] [µM]	IC50 [3] [µM]	IC50 [4] [µM]	IC50 [5] [µM]	IC50 [6] [µM]	IC50 [7] [µM]	half-life [9] [min]	clearance [10] [L/h/kg]	Vd [11] [L/kg]	half-life [12] [min]	AUC/dose [13] [nM·h]	AUC/dose [14] [nM·h]	Cmax/dose [15] [nM]	bioavailability [16] [%]	t1/2 [17] [min]	t1/2 [18] [min]	SMILES	IC50 [1] [µM]	IC50 [8] [µM]
1.6	> 10	> 10	> 10	9.27	–	9	–	–	–	–	–	–	–	–	–	Cn1ccc2cccc(Nc3nc(N[C@@H]4CCCC[C@@H]4N)cc4nc[nH]c(=O)c34)c21	> 10	–
0.48	> 10	> 10	> 10	–	–	59	–	–	–	–	–	–	–	> 120	> 120	Cc1nc2cc(N[C@@H]3CCCC[C@@H]3N)nc(Nc3cccc4c(C)c[nH]c34)c2c(=O)[nH]1	–	–
0.005	–	0.074	–	0.778	–	–	–	–	–	–	–	–	–	–	–	N[C@H]1CCCC[C@H]1Nc1cc2nc[nH]c(=O)c2c(Nc2cccc(-n3nccn3)c2)n1	0.249	–
0.001	0.069	0.047	0.184	0.037	0.299	20	6.72	12	198	401	9	2	2	–	–	Cc1c[nH]c2c(Nc3nc(N[C@@H]4CCOC[C@@H]4N)cc4nc[nH]c(=O)c34)cccc12	5.98	> 30

— ChEMBL document CHEMBL3259804, “Syk inhibitors with high potency in presence of blood” (Bioorg Med Chem Lett, 2014)
